The values below come from patent publication US20160355475A1, “NOVEL INDOLE DERIVATIVE COMPOUND AND PHARMACEUTICAL COMPOSITION COMPRISING THE SAME” (CHONG KUN DANG PHARMACEUTICAL CORP., priority 2014, published 2016).

In one assay the target is T1, HDAC6 human recombinant (Homo sapiens, UniProt Q9UBN7).
T1 construct: purchased Calbiochem 382180
T1 sequence (Q9UBN7 1-1215): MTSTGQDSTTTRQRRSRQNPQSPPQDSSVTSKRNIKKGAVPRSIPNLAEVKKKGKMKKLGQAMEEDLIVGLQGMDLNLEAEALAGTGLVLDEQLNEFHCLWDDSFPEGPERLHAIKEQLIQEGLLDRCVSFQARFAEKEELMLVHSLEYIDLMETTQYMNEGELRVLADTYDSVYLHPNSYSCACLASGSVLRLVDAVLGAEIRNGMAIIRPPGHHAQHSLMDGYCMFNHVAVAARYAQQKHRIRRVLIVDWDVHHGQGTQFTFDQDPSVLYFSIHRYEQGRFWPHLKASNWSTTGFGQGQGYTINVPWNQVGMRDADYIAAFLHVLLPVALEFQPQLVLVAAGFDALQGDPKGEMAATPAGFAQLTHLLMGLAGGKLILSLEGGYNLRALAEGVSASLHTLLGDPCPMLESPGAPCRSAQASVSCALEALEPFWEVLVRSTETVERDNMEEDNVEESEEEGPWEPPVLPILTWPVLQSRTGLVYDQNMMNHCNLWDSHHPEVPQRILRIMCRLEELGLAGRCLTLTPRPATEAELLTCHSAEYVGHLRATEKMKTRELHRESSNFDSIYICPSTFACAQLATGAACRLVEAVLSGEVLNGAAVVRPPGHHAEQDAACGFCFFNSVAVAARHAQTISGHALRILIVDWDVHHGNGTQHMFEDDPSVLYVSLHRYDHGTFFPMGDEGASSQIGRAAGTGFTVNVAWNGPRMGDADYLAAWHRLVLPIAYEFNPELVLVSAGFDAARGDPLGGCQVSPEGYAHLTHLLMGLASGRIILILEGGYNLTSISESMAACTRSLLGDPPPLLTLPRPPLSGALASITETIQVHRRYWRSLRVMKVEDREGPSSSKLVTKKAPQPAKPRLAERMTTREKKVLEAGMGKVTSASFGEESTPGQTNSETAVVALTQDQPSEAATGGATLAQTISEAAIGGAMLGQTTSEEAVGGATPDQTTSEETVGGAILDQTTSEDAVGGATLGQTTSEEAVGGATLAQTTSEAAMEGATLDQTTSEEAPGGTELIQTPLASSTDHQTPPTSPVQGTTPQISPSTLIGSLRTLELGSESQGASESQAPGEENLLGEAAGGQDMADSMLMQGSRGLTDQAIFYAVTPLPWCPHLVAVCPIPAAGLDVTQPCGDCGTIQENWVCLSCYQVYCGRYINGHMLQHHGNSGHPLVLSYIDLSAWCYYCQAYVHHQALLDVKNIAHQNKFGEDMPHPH
Briefly: HDAC6 enzyme activity inhibition (fluorimetric, in vitro). It counts as biochemical. The settings on record: 37° C., 60 minutes; tested at 0.1, 1, 10, 100 and 1000 nM. Here is the method:
(§1) 1. Experiment on Activities in HDAC Enzymes (HDAC1 and HDAC6)
(§2) Assays were performed using a HDAC1 fluorimetric drug discovery assay kit (Enzolifesciences: BML-AK511) and a HDAC6 human recombinant (Calbiochem: 382180). The assay mixture of the kit was treated with each of the compounds of the Examples at concentrations 100, 1000 and 10000 nM for HDAC1 assay and 0.1, 1, 10, 100 and 1000 nM for HDAC6 assay. The treated assay mixture was allowed to react at 37° C. for 60 minutes, and then was treated with a developer and allowed to stand at 37° C. for 30 minutes, followed by quantification of the fluorescence. In Table 17, lower HDAC6 values (μM) indicate higher HDAC6 inhibitory activities of the compounds. Also, because selective HDAC6 inhibitors should not inhibit HDAC1 (μM), higher HDAC1 values indicate higher HDAC6 selectivity of the compounds.

The next assay concerns the target T2, HDAC1 (Homo sapiens, UniProt Q13547).
T2 construct: purchased Enzolifesciences BML-AK511
The experiment in a line: HDAC1 enzyme activity inhibition (HDAC1 fluorimetric drug discovery assay kit). Format: biochemical. Particulars: 37° C., 60 minutes; tested at 100, 1000 and 10000 nM. Here is the method:
as §1, §2

Broadly, the IC50 is the concentration that gives 50% inhibition.

The structures appear in SMILES notation.

T2 sequence (Q13547 whole entry): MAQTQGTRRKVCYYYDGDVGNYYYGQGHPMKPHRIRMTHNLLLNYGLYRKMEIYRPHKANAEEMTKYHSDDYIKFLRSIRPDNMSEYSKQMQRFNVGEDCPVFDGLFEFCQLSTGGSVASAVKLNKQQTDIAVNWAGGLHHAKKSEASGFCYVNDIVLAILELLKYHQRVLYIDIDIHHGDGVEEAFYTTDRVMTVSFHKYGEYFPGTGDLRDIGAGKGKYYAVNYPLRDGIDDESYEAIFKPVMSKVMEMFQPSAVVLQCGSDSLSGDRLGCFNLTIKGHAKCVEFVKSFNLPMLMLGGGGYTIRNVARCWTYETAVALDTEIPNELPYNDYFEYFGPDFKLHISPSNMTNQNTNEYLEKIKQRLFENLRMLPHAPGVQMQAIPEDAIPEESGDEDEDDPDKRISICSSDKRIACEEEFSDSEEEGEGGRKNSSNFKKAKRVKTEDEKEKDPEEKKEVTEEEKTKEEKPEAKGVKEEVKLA

In the case of `Cc1c(Cc2ccc(C(=O)NO)cc2)c2cc(F)ccc2n1CCN1CC[C@H](F)C1` [Compound 589, (S)-4-((5-fluoro-1-(2-(3-fluoropyrrolidin-1-yl)ethyl)-2-methyl-1H-indol-3-yl)methyl)-N-hydroxybenzamide], the 50% inhibitory concentration (IC50) on HDAC6 human recombinant amounted to 63 nM; on HDAC1 it was 4640 nM.
Taken in the same sequence, the figures for `Cc1c(Cc2ccc(C(=O)NO)cc2)c2cc(F)ccc2n1CCN1CCC(F)CC1` [Compound 590, 4-((5-Fluoro-1-(2-(4-fluoropiperidin-1-yl)ethyl)-2-methyl-1H-indol-3-yl)methyl)-N-hydroxybenzamide] were 49 nM and 6120 nM.
The like results for `Cc1c(Cc2ccc(C(=O)NO)cc2)c2ccccc2n1CCN1CCC(CF)C1` (stereo not drawn) [Compound 591, 4-((1-(2-(3-(Fluoromethyl)pyrrolidin-1-yl)ethyl)-2-methyl-1H-indol-3-yl)methyl)-N-hydroxybenzamide] were, in that order, 31 nM and 6610 nM.
`Cc1c(Cc2ccc(C(=O)NO)cc2)c2ccccc2n1CCN1CC[C@H](O)C1` [Compound 592, (S)—N-hydroxy-4-((1-(2-(3-hydroxypyrrolidin-1-yl)ethyl)-2-methyl-1H-indol-3-yl)methyl)benzamide]: the figures for the IC50 at HDAC6 human recombinant and at HDAC1 were 16 nM and 4950 nM, respectively.
Taken in the same sequence, the figures for `Cc1c(Cc2ccc(C(=O)NO)cc2)c2ccccc2n1CCN1CC[C@H](F)C1` [Compound 593, (S)-4-((1-(2-(3-fluoropyrrolidin-1-yl)ethyl)-2-methyl-1H-indol-3-yl)methyl)-N-hydroxybenzamide] were 32 nM and 7140 nM.
The like results for `Cc1c(Cc2ccc(C(=O)NO)cc2)c2ccccc2n1CCN1CCCC(CO)C1` (stereo not drawn) [Compound 594, N-hydroxy-4-((1-(2-(3-(hydroxymethyl)piperidin-1-yl)ethyl)-2-methyl-1H-indol-3-yl)methyl)benzamide] were, in that order, 17 nM and 3140 nM.
Taken in the same sequence, the figures for `CCCc1c(Cc2ccc(C(=O)NO)cc2)c2ccccc2n1CC1CCN(CC(C)(C)O)CC1` [Compound 601, N-hydroxy-4-((1-((1-(2-hydroxy-2-methylpropyl)piperidin-4-yl)methyl)-2-propyl-1H-indol-3-yl)methyl)benzamide] were 98 nM and 5600 nM.
On to `CCCc1c(Cc2ccc(C(=O)NO)cc2)c2ccccc2n1CC1CCN(CC(C)(C)F)CC1` [Compound 602, 4-((1-((1-(2-fluoro-2-methylpropyl)piperidin-4-yl)methyl)-2-propyl-1H-indol-3-yl)methyl)-N-hydroxybenzamide], for which the IC50 on HDAC6 human recombinant is 300 nM; against HDAC1 it was greater than 10000 nM.
The like results for `Cc1c(Cc2ccc(C(=O)NO)cc2)c2ccccc2n1CC1CCN(Cc2cccc(-c3nccs3)c2)CC1` [Compound 603, N-hydroxy-4-((2-methyl-1-((1-(3-(thiazol-2-yl)benzyl)piperidin-4-yl)methyl)-1H-indol-3-yl)methyl)benzamide] were, in that order, 206 nM and greater than 10000 nM.
The like results for `Cc1c(Cc2ccc(C(=O)NO)cc2)c2ccccc2n1CC1CCN(CC(C)(C)O)CC1` [Compound 608, N-hydroxy-4-((1-((1-(2-hydroxy-2-methylpropyl)piperidin-4-yl)methyl)-2-methyl-1H-indol-3-yl)methyl)benzamide] were, in that order, 7 nM and 1070 nM.
Taken in the same sequence, the figures for `Cc1c(Cc2ccc(C(=O)NO)cc2)c2ccccc2n1CC1CCN(CC2(F)COC2)CC1` [Compound 609, 4-((1-((1-((3-Fluorooxetan-3-yl)methyl)piperidin-4-yl)methyl)-2-methyl-1H-indol-3-yl)methyl)-N-hydroxybenzamide] were 5 nM and 3630 nM.
Regarding `Cc1c(Cc2ccc(C(=O)NO)cc2)c2ccccc2n1CC1CCN(CC2(F)CCN(C(=O)OC(C)(C)C)CC2)CC1` [Compound 610, Tert-butyl 4-fluoro-4-((4-((3-(4-(hydroxycarbamoyl)benzyl)-2-methyl-1H-indol-1-yl)methyl)piperidin-1-yl)methyl)piperidine-1-carboxylate], the IC50 at HDAC6 human recombinant is 79 nM; against HDAC1, greater than 10000 nM.
Taken in the same sequence, the figures for `Cc1c(Cc2ccc(C(=O)NO)cc2)c2ccccc2n1CC1CCN(CC2(F)CCNCC2)CC1` [Compound 611, 4-((1-((1-((4-fluoropiperidin-4-yl)methyl)piperidin-4-yl)methyl)-2-methyl-1H-indol-3-yl)methyl)-N-hydroxybenzamide] were 24 nM and 2930 nM.
Taken in the same sequence, the figures for `CC(=O)N1CCC(F)(CN2CCC(Cn3c(C)c(Cc4ccc(C(=O)NO)cc4)c4ccccc43)CC2)CC1` [Compound 612, 4-((1-((1-((1-acetyl-4-fluoropiperidin-4-yl)methyl)piperidin-4-yl)methyl)-2-methyl-1H-indol-3-yl)methyl)-N-hydroxybenzamide] were 61 nM and 9100 nM.
Taken in the same sequence, the figures for `Cc1c(Cc2ccc(C(=O)NO)cc2)c2ccccc2n1CC1CCN(CC2(F)CCN(CC(C)(C)O)CC2)CC1` [Compound 613, 4-((1-((1-((4-fluoro-1-(2-hydroxy-2-methylpropyl)piperidin-4-yl)methyl)piperidin-4-yl)methyl)-2-methyl-1H-indol-3-yl)methyl)-N-hydroxybenzamide] were 69 nM and 6740 nM.
As to `Cc1c(Cc2ccc(C(=O)NO)cc2)c2ccccc2n1CC1CCN(CC2(F)CCN(CC(C)(C)F)CC2)CC1` [Compound 615, 4-((1-((1-((4-Fluoro-1-(2-fluoro-2-methylpropyl)piperidin-4-yl)methyl)piperidin-4-yl)methyl)-2-methyl-1H-indol-3-yl)methyl)-N-hydroxybenzamide], the IC50 is 7 nM at HDAC6 human recombinant and greater than 10000 nM against HDAC1.
Taken in the same sequence, the figures for `Cc1c(Cc2ccc(C(=O)NO)cc2)c2ccccc2n1CC1CCN(Cc2cc(F)c(F)cc2F)CC1` [Compound 619, N-hydroxy-4-((2-methyl-1-((1-(2,4,5-trifluorobenzyl)piperidin-4-yl)methyl)-1H-indol-3-yl)methyl)benzamide] were 770 nM and greater than 10000 nM.
Taken in the same sequence, the figures for `Cc1c(Cc2ccc(C(=O)NO)cc2)c2ccccc2n1CC1CCN(Cc2ccccc2F)CC1` [Compound 620, 4-((1-((1-(2-Fluorobenzyl)piperidin-4-yl)methyl)-2-methyl-1H-indol-3-yl)methyl)-N-hydroxybenzamide] were 306 nM and greater than 10000 nM.
Turning to `Cc1c(Cc2ccc(C(=O)NO)cc2)c2ccccc2n1CC1CCN(Cc2ccccn2)CC1` [Compound 623, N-hydroxy-4-((2-methyl-1-((1-(pyridin-2-ylmethyl)piperidin-4-yl)methyl)-1H-indol-3-yl)methyl)benzamide], the values for the half-inhibitory concentration (IC50) at HDAC6 human recombinant and at HDAC1 were 28 nM and 1480 nM, respectively.
Taken in the same sequence, the figures for `CC(C)(F)CN1CCC(Cn2c(-c3ccncc3)c(Cc3ccc(C(=O)NO)cc3)c3ccccc32)CC1` [Compound 624, 4-((1-((1-(2-Fluoro-2-methylpropyl)piperidin-4-yl)methyl)-2-(pyridin-4-yl)-1H-indol-3-yl)methyl)-N-hydroxybenzamide] were 107 nM and 5010 nM.
Taken in the same sequence, the figures for `CC(C)(F)CN1CCC(Cn2c(-c3cncnc3)c(Cc3ccc(C(=O)NO)cc3)c3ccccc32)CC1` [Compound 625, 4-((1-((1-(2-Fluoro-2-methylpropyl)piperidin-4-yl)methyl)-2-(pyrimidin-5-yl)-1H-indol-3-yl)methyl)-N-hydroxybenzamide] were 71 nM and 5720 nM.
